Laboratory results published in patent publication US11590117B2, “Treatment of a hematologic malignancy with 2-(4-chlorophenyl)-n-((2-(2,6-dioxopiperidin-3-yl)-1-oxoisoindolin-5-yl)methyl)-2,2-difluoroacetamide” (priority 2016, dated 2023).
pEC50: −log10 of the molar value. Read-outs that look alike come from different tables or passages of the source.

Experiments:
Test in all cases: IncuCyte Kinetic Caspase-3/7 Apoptosis Assay
Assay type in all cases: cell-based
[1] = tested on: KG-1; settings: Homo sapiens, read-out: Compound 1-induced Apoptosis EC50
From the text: (§1) Methods. Acute Myeloid Leukemia Cell Line Panel: Human AML cell lines, AML-193, F36-P, GDM-1, HL-60, HNT-34, Kasumi-1, Kasumi-3, KG-1, KG-1a, ML-2, MOLM-13, MUTZ-8, MV-4-11, NOMO-1, OCI-AML2, OCI-AML3, SIG-M5, TF-1, THP-1, and UT-7 were obtained from American Type Culture Collection (ATCC; Manassas, Va.) and Deutsche Sammlung von Mikroorganismen und Zellkulturen (DSMZ) (Germany) cell banks. The AML panel includes cell line(s) from each FAB classification (M0-M7) (Table 7).
(§2) Cell Culture Conditions: Cell lines were maintained in growth media containing 20% fetal bovine serum (FBS) (Hyclone Cat no. SH30910.03, Lot no. AZF188864; Corning REFno. 35-010-CV, Lot no. 35010124) supplemented with or without 10 ng/mL human recombinant granulocyte-macrophage colony stimulating factor (Sigma-Aldrich Cat no. SRP3050) (Table 8). Medium was purchased from ATCC (Cat no. 30-2001, 30-2002, 30-2003, 30-2005) and Gibco (REF no. 12561-056). Human recombinant granulocyte macrophage colony stimulating factor (GM-CSF) was expressed in Escherichia coli. The cell doubling times for each cell line were provided by ATCC and DSMZ. Cells were maintained in humidified incubators at 5% carbon dioxide (CO2). All cell lines were acclimated to Eagle's minimal essential medium (EMEM)+20% FBS with or without GM-CSF over 2 to 4 weeks prior to live cell imaging using IncuCyte Zoom (Essen Biosciences). The use of EMEM was necessary to eliminate background fluorescence caused by riboflavin in most media.
(§3) Incubation of Cell Cultures with Compound 1: Compound 1 was provided for studies by Celgene chemistry group at a stock concentration of 30 mM in 20 μL dimethyl sulfoxide (DMSO) frozen. Costar 96-well cell culture plates (Corning Cat no. 3595) were coated with 100 μL of 10 µg/mL fibronectin (Sigma-Aldrich Cat no. F1141) for 4 hours at 37° C. and immediately used or refrigerated overnight for later use. Cells (3000 to 6000 cells) were plated in growth medi in fibronectin-coated 96-well plates and incubated for a minimum of a few hours to overnight. Cells were incubated with a 12-point concentration response in triplicate with Compound 1 ([…]) including DMSO and Media controls. A 3-fold serial dilution of Compound 1 starting from a concentration of 200 μM in 0.6% DMSO (diluted in Media) was performed. For most sensitive cell lines, a 3-fold serial dilution of Compound 1 starting from a concentration of 20 μM in 0.6% DMSO (diluted in media) was performed. A volume of 5 μL or 10 μL for each dilution was added to 100 μL or 200 μL cells, respectively (0.3% DMSO final) and incubated for live cell imaging.
(§4) Live Cell Imaging on IncuCyte Zoom: Following incubation of cells with Compound 1, diluted Caspase 3/7 reagent (Essen Biosciences Cat no. 4440) is added to each well. The Caspase-3/7 reagent couples the activated caspase-3/7 recognition motif (DEVD) to NucView™488, a DNA intercalating dye. The cleavage of substrate by activated caspase-3/7 results in the release of the DNA dye and green fluorescent staining of nuclear DNA. This allows imaging of cells undergoing caspase-3/7 mediated apoptosis over time. Caspase-3/7 activation was quantified using the IncuCyte™ ZOOM basic analyzer. Red-labeled cell lines were also imaged over time using the IncuCyte™ ZOOM basic analyzer, for determination of both cell doubling time and Compound 1 effect on cell viability. Experiments were performed at least two times in each cell line.
(§5) Next, a 4 parameter log-logistic model was used to determine relative EC50 at each time point by the ‘drm’ function from the R ‘drc’ package (Ritz C, Streibig J C. Bioassay Analysis using R. J. Statist. Software 2005; 12(5):1-22). Goodness of fit was measured by R squared (coefficient of determination or the amount of variation explained by the model fit) of ≥80%, and EC50 parameter was assessed by having a ratio of standard error to the parameter of ≤40%, and the presence of at least one concentration point above and below the reported EC50. […]

[2] = tested on: OCI-AML2; settings: Homo sapiens, read-out: Compound 1-induced Apoptosis EC50
From the text: as §1, §2, §3, §4, §5

[3] = tested on: OCI-AML3; settings: Homo sapiens, read-out: Compound 1-induced Apoptosis EC50
From the text: as §1, §2, §3, §4, §5

[4] = tested on: KG-1a; settings: Homo sapiens, read-out: Compound 1-induced Apoptosis EC50
From the text: as §1, §2, §3, §4, §5

[5] = tested on: HL-60; settings: Homo sapiens, read-out: Compound 1-induced Apoptosis EC50
From the text: as §1, §2, §3, §4, §5

[6] = tested on: MUTZ-8; settings: Homo sapiens, read-out: Compound 1-induced Apoptosis EC50
From the text: as §1, §2, §3, §4, §5

[7] = tested on: SIG-M5; settings: Homo sapiens, read-out: Compound 1-induced Apoptosis EC50
From the text: as §1, §2, §3, §4, §5

[8] = tested on: UT-7; settings: Homo sapiens, read-out: Compound 1-induced Apoptosis EC50
From the text: as §1, §2, §3, §4, §5

[9] = tested on: TF-1; settings: Homo sapiens, read-out: Compound 1-induced Apoptosis EC50
From the text: as §1, §2, §3, §4, §5

[10] = tested on: THP-1; settings: Homo sapiens
From the text: as §1, §2, §3, §4, §5

[11] = tested on: Kasumi-3; settings: Homo sapiens, read-out: Compound 1-induced Apoptosis EC50
From the text: as §1, §2, §3, §4, §5

[12] = tested on: AML-193; settings: Homo sapiens, read-out: Compound 1-induced Apoptosis EC50
From the text: as §1, §2, §3, §4, §5

O=C1CCC(N2Cc3cc(CNC(=O)C(F)(F)c4ccc(Cl)cc4)ccc3C2=O)C(=O)N1 (centres unmarked) [Compound 1, 2-(4-chlorophenyl)-N-((2-(2,6-dioxopiperidin-3-yl)-1-oxoisoindolin-5-yl)methyl)-2,2-difluoroacetamide]
pEC50 ([1]; 12 hr): 7.28 | pEC50 ([1]; 24 hr): 6.97 | pEC50 ([1]; 48 hr): 7.41 | pEC50 ([1]; 72 hr): 7.59 | pEC50 ([1]; 96 hr): 7.60 | pEC50 ([2]; 24 hr): 6.36 | pEC50 ([2]; 48 hr): 7.09 | pEC50 ([2]; 72 hr): 7.39 | pEC50 ([2]; 96 hr): 7.42 | pEC50 ([3]; OCI-AML-3, 48 hr): 6.05 | pEC50 ([3]; OCI-AML-3, 72 hr): 6.01 | pEC50 ([3]; OCI-AML-3, 96 hr): 6.38 | pEC50 ([4]; 24 hr): 6.65 | pEC50 ([4]; 48 hr): 6.84 | pEC50 ([4]; 72 hr): 6.73 | pEC50 ([5]; 24 hr): 7.14 | pEC50 ([5]; 48 hr): 7.82 | pEC50 ([5]; 72 hr): 8.10 | pEC50 ([6]; 24 hr): 7.06 | pEC50 ([6]; 48 hr): 7.40 | pEC50 ([6]; 72 hr): 7.74 | pEC50 ([6]; 96 hr): 7.82 | pEC50 ([7]; 24 hr): 6.83 | pEC50 ([7]; 48 hr): 7.01 | pEC50 ([7]; 72 hr): 7.30 | pEC50 ([7]; 96 hr): 7.48 | pEC50 ([8]; UT7, 48 hr): 6.64 | pEC50 ([8]; UT7, 72 hr): 6.66 | pEC50 ([8]; UT7, 96 hr): 6.77 | pEC50 ([9]; 48 hr): 6.89 | pEC50 ([9]; 72 hr): 7.19 | pEC50 ([9]; 96 hr): 7.19 | pEC50 ([10]; 48 hours, read-out: apoptosis EC50): < 5.00 | pEC50 ([10]; 48 hours, read-out: apoptosis EC50 48hr): < 5.00 | pEC50 ([10]; all time points, read-out: apoptosis EC50): < 5.00 | pEC50 ([11]; 12 hr): 7.27 | pEC50 ([11]; 24 hr): 8.00 | pEC50 ([11]; 48 hr): 8.40 | pEC50 ([11]; 72 hr): 8.52 | pEC50 ([11]; 96 hr): 9.00 | pEC50 ([12]; 24 hr): 6.60 | pEC50 ([12]; 48 hr): 7.05 | pEC50 ([12]; 72 hr): 7.33 | pEC50 ([12]; 96 hr): 7.22
